Source: patent US20250213622A1 (priority 2022, published 2025)
Where a name gives a salt, the structure may show the parent alone.

Key:
Assay type in all cases: in vivo, C57BL/6J mice
[1] = test system: subacute MPTP mouse model; assay: Pole climbing test (T-Turn, T-TLA), subacute MPTP mouse model; conditions: Selegiline 0.5 mg/kg/d i.p.
Procedure: (§1) The mice were weighed and recorded, and injected subcutaneously at the back of the neck at 20 mg/kg, once a day for 5 consecutive days. Subsequent experiments were performed on the 1st, 3rd, 7th and 14th days after the last administration.
(§2) 128 healthy adult mice were randomly divided into six groups according to body weight, including normal control (Sham) group (n=20), MPTP model group (n=28), low-dose Lepalvir (10 U/kg/d) treatment group (n=20), medium-dose Lepalvir (20U/kg/d) treatment group (n=20), high-dose Lepalvir (40 U/kg/d) treatment group (n=20) and positive control drug Selegiline (0.5 mg/kg/d) treatment group (n=20). Among them, mice in the Lepalvir and Selegiline treatment groups were injected with corresponding doses intraperitoneally 1 hour after the first MPTP administration, and continued for 7 or 14 days, once a day. Mice in the MPTP model group were given an equal volume of normal saline (0.1 mL/10 g). Mice in the sham group were only given an equal volume of normal saline (0.1 mL/10 g).
(§3) Behavioral assessment was performed on the 1st, 3rd, 7th and 14th days after the last administration of MPTP.
The pole climbing test was used to evaluate the motor coordination function of mouse. The pole used was 1 cm in diameter and 50 cm in height. A wooden ball with a diameter of 1.2 cm was fixed to the top of the pole. The pole was wrapped with anti-slip tape to prevent the mouse from slipping. The mouse was placed on the top of the pole with its head facing up. When the mouse started to […], the timer started and the time it took for the mouse to cross the top of the pole (T-Turn) from the start of the movement and the time it took for the mouse to climb down to the bottom with four paws landing on the ground from the start of the movement (T-TLA) were recoded. Before the formal test, three consecutive trainings were required for each mouse. During the test, three consecutive measurements were required, and the shortest time was selected.

[2] = test system: subacute MPTP mouse model; assay: Open field test, total movement distance, subacute MPTP mouse model; conditions: for Total movement distance in the open field test: Selegiline 0.5 mg/kg/d i.p.
Procedure: as §1, §2, §3
The open field test was used to evaluate the autonomous movement ability of mouse. The open field apparatus was made of opaque blue plastic and was 60 cm×60 cm×45 cm in size. During the test, each mouse was placed into the box from the central area, and the movement trajectory of each mouse within 5 minutes was recorded at the same time. The total movement distance was calculated using software (Clever Sys Inc., VA, USA). After each mouse was tested, the open field area was wiped with 75% ethanol to prevent the smell of the previous mouse from affecting the next mouse.

[3] = test system: TH-positive neurons in the substantia nigra pars compacta; assay: TH (tyrosine hydroxylase) staining, neuron count in substantia nigra pars compacta, subacute MPTP mouse model; conditions: for Number of TH-positive neurons in the substantia nigra pars compacta: Selegiline 0.5 mg/kg/d i.p.
Procedure: as §1, §2
(§4) On day 7 and day 14 after the last administration of MPTP respectively, half of the mice in each group were selected, anesthetized with 4% chloral hydrate, and perfused with saline +4% PFA to obtain brain tissue. After gradient dehydration in 20% (v/v) and 30% (v/v) sucrose solutions for 3 days respectively, the mouse brain tissue was embedded in OCT glue and frozen, and the Microtome Cryostat (Leica) was used to continuously slice the tissue (20 μm), and the brain slices of the relevant regions were collected, placed in freezing solution (glycerol: 0.01M PBS=1:1) and stored at −80° C. for use.
TH mainly marks dopaminergic neurons in the substantia nigra pars compacta. […] The midbrain slices were obtained, washed once with 0.01 M PBS for 10 min, and then incubated with 3% H2O2 for 15 min to remove endogenous peroxidase activity. […]
(§5) Immunohistochemical positive cells were counted using the Stereo Investigator (MBF bioscience) system and the number of Nissl body-positive cells and TH+ cells in the substantia nigra pars compacta were calculated. […]

[4] = test system: subacute MPTP mouse model; assay: Rotarod test, latency, subacute MPTP mouse model; conditions: for Latency time: Selegiline 0.5 mg/kg/d i.p.
Procedure: as §1, §2, §3
The rotarod test was used to evaluate the motor balance and limb coordination of mouse. The mouse was placed on the drum of the Rotarod tester, and the speed was set to increase uniformly from 5 rpm/min to 25 rpm/min within 2 minutes. When the mouse fell from the drum to the sensing area below, an infrared sensor would receive the signal and record the time the mouse moved on the drum of the instrument. Before the formal test, three consecutive trainings were required for each mouse. During the test, three consecutive measurements are required, and the average falling time was selected (latency).

[5] = test system: Nissl-positive neurons in the substantia nigra pars compacta; assay: Nissl staining, neuron count in substantia nigra pars compacta, subacute MPTP mouse model; conditions: for Number of Nissl-positive neurons in the substantia nigra pars compacta: Selegiline 0.5 mg/kg/d i.p.
Procedure: as §1, §2, §4
Nissl bodies are a type of basophilic substance in the cytoplasm that is widely found in various neurons, and thus the number of neurons in the relevant brain regions was calculated by Nissl staining. Staining was performed using the Nissl staining kit.
as §5

[6] = positive control Selegiline 0.5 mg/kg/d, day 1, 3, 7, and 14
[7] = positive control Selegiline 0.5 mg/kg/d, day 7 and 14

`C#CCN(C)[C@H](C)Cc1ccccc1` [Selegiline, Selegiline hydrochloride] showed a T-TLA ([1]; Day 1 after last MPTP) of 9.23 ± 0.65 s, a T-Turn ([1]; Day 1 after last MPTP) of 1.57 ± 0.10 s and a T-TLA ([1]; Day 3 after last MPTP) of 5.96 ± 0.49 s. The T-Turn ([1]; Day 3 after last MPTP) was 1.35 ± 0.09 s, the T-TLA ([1]; Day 7 after last MPTP) was 7.61 ± 0.91 s and the T-Turn ([1]; Day 7 after last MPTP) was 1.49 ± 0.14 s. For the same compound, the T-TLA ([1]; Day 14 after last MPTP) was 7.90 ± 1.17 s, the T-Turn ([1]; Day 14 after last MPTP) was 1.49 ± 0.20 s and the “Total movement distance in the open field test” value (“Total movement distance” for short) ([2]; 1 day after last MPTP) was 1269 ± 138 mm. For the same compound, the “Total movement distance” value ([2]; 3 days after last MPTP) was 1359 ± 68 mm, the “Total movement distance” value ([2]; 7 days after last MPTP) was 684 ± 68 mm and the “Total movement distance” value ([2]; 14 days after last MPTP) was 578 ± 51 mm. The “Effect on MPTP-induced reduction in total distance traveled (in words)” value [2, 6] was “significantly improved”, the “Number of TH-positive neurons in the substantia nigra pars compacta” value ([3]; Day 7 after last MPTP) was 9578 ± 441 and the “Number of TH-positive neurons in the substantia nigra pars compacta” value ([3]; Day 14 after last MPTP) was 9670 ± 692. The “Effect on MPTP-induced decrease in number of TH-positive neurons (in words)” value [3, 7] was “significantly improved”, the Latency time ([4]; Day 1 after last MPTP) was 160.2 ± 4.8 s and the Latency time ([4]; Day 3 after last MPTP) was 173.1 ± 2.2 s. For the same compound, the Latency time ([4]; Day 7 after last MPTP) was 168.5 ± 3.5 s, the Latency time ([4]; Day 14 after last MPTP) was 166.7 ± 4.2 s and the “Effect on MPTP-induced shortening of rotarod latency (in words)” value [4, 6] was “significantly improved”. The “Number of Nissl-positive neurons in the substantia nigra pars compacta” value ([5]; Day 7 after last MPTP) was 10688 ± 458, the “Number of Nissl-positive neurons in the substantia nigra pars compacta” value ([5]; Day 14 after last MPTP) was 11024 ± 539 and the “Effect on MPTP-induced decrease in number of Nissl-stained positive neurons (in words)” value [5, 7] was “significantly improved”.
